Results on five molecules are retold here after patent publication US20240279233A1, “MACROCYCLIC TAK1 INHIBITORS” (Aqilion AB, priority 2021, published 2024).

The conditions of series [1]: from COC(=O)c1cccc2nc(NC(=O)c3cccc(C(=O)O)c3)n(CCCCCN)c12; amide bond; 14-membered ring; HATU/DIEA; 16.0 h; 2 steps.
For series [2] the following is noted: amide bond, 14-membered ring.
The target in series [3] is human recombinant TAK1-TAB1 Kinase (TAK1 (1-303) and TAB1 (437-end)) (Homo sapiens (Human), UniProt O43318). In words: TAK1 biochemical ADP-Glo kinase assay. The settings on record: 10 μM ATP, MBP substrate; read-out: TAK1 Mean IC50 (nM) @ 10 μM ATP. An outline of the steps:
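Inhibition of human recombinant TAK1-TAB1 kinase was measured with a Promega ADP-Glo luminescence assay in 384-well plates. Compounds in 5% DMSO were pre-incubated 10 min with 2 μl TAK1-TAB1 (7.5 ng/μl) in buffer of Tris pH 7.5, MgCl2, DTT and BSA. MBP substrate and ATP were then added for 1 hour at room temperature. ADP-Glo reagent and kinase detection substrate followed, luminescence was read on an Envision, and IC50 came from non-linear regression.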
A general note: In ADP-Glo the light output rises with the ADP produced.

A short description of series [4]: Solubility assay in phosphate buffer. As to conditions: phosphate buffer, pH 7.4, aqueous buffer, kinetic from dmso stock, Solubility (μM), phosphate buffer 100 mM, pH 7.4, room temperature, 20-24 h, LC-UV.
Protocol: (§1) The aqueous solubility of selected example compounds was determined as follows; 6 μL of DMSO stock solution of the selected example was added to 594 μL phosphate buffer (100 mM, pH 7.4). The resulting mixture was equilibrated over night (20-24 h, Alligator Shaker, room temperature). The mixture was then filtered (Millex LH 0.45 μm) and the concentration/solubility was determined by LC-UV quantification.
The test system of series [5] is phosphorylated p38 (TAK1 activity) in THP-1 cells. Kind of series: Cell-based p38 phosphorylation assay (Western blot). The settings on record: for IC50: PMA-differentiated THP-1 cells, compound 30 minutes then 200 ng/ml LPS 30 minutes, read-out: IC50 (nM) in phospho-p38 cell assay. The protocol:
The cellular activity of example compounds 2, 3 and 9 and the comparative example (i.e. takinib) for inhibiting TAK1 activity was evaluated using an in vitro functional cell assay.
THP-1 cells were incubated at 37° C. in 5% CO2. THP-1 cells were cultured in RPMI 1640, 10% FBS, 1% Penicillin-Streptomycin.
THP-1 cells were treated with 100 nM phorbol 12-myristate 13-acetate (PMA) to induce macrophage differentiation and seeded at the density of 1×10^6 cells/well (2 ml/well in a 6-well plate) for 72 hours. The cell culture media was then replaced with PMA-free media and incubated for further 48 hours. Test compounds were prepared as 200×final assay concentration stocks in DMSO (final concentrations in the assay were 10-0.03 μM in 0.5% DMSO, details provided below). Following THP-1 cell differentiation, cells were treated with different concentrations of the control compound NG25 (CAS No.:1315355-93-1, Tan L, et al. J Med Chem. 2015, 58(1), 183-96) or test compounds (10 μl/well) for 30 minutes followed by 200 ng/ml LPS for 30 minutes.
Test items were kept as 10 mM stock solutions in 100% DMSO. The serial dilution of compounds was prepared as 200× serial dilutions of desired final concentration in […] to reach 0.5% DMSO working solution (see Table 3 below).
Dilution series of compounds from 10 μM final highest concentration to 0.03 μM final low concentration were first made in DMSO (see Table 3), 10 μl of each dilution was mixed into 2 ml of cell cultures (0.5% DMSO per well).
10 μl of DMSO was added to the control. All plates were incubated at 37° C., 5% CO2 for 30 minutes and LPS was added to a final concentration of 200 ng/ml.
For Western blot analysis, cells were lysed (50 mM Tris, 150 mM NaCl, 1 mM EDTA, 1% Triton-X100, 1 mM DTT, complete protease and PhosStop phosphatase inhibitor) after indicated treatment and run on NuPAGE Bis-Tris gel 4-12% gradient (Invitrogen). Following transfer to PVDF membrane and blocking in 5% BSA in PBST, membranes were incubated with primary antibody overnight (specific for phosphorylated p38; Cell Signaling, 1:1,000 dilution). After incubation with species-specific secondary antibodies for 1 hour at room temperature, the membranes were visualized with the ECL SuperSignal™ West Pico PLUS Chemiluminescent Substrate (Thermo Scientific). The images were captured with iBright Western Blot Imaging Systems (Invitrogen) and quantified with ImageJ software (Java-based image processing program developed at the National Institutes of Health and the Laboratory for Optical and Computational Instrumentation). Anti-β-actin antibodies were used as the loading control for whole-cell extracts in all samples (anti-β actin; Sigma-Aldrich, 1:5000 dilution, 1 hour incubation).
For immunoblotting, cells were lysed directly in six-well plates by incubating for 30 min at 4° C. in 60 μl Triton lysis buffer. The lysates were centrifuged for 15 minutes at 13,000×g at 4° C. Equal amount of protein from each supernatants were resuspended with 5× sample buffer. Samples were boiled for 10 minutes and then resolved by 4-12% SDS-PAGE (100 V). Proteins were transferred from gel to PVDF membranes ([…] pore size) following the recommended setting (90 minutes, 85 V). […]
On the technique in general: Immunoblotting shows a protein as a band on a membrane.

For series [6] the following is noted: pH 7.4.
Protocol: as §1

In brackets after ≈: the same amount, converted by molar mass. Where two headings read alike, the source gives them in different places.

Sequence of human recombinant TAK1-TAB1 Kinase (TAK1 (1-303) and TAB1 (437-end)) (O43318 other isoform, or with tags, fused parts or gaps): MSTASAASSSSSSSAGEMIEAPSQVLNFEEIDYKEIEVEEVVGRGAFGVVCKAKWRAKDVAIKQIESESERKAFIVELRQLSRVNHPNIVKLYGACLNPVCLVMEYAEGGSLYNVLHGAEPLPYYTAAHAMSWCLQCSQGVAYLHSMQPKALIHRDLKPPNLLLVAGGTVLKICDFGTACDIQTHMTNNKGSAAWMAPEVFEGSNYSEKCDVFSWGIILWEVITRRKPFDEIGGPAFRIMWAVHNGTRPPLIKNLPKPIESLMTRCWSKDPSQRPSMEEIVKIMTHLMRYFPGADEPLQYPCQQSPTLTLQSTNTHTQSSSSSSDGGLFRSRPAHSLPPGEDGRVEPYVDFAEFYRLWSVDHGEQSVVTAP

For `COC(=O)c1cccc2nc3n(c12)CCCCCNC(=O)c1cccc(c1)C(=O)N3`, the ring closure, crude yield in series [1] came out at 76%.

`CN1CCN(Cc2ccc3c(c2)nc2n3CCCCCNC(=O)c3cccc(c3)C(=O)N2)CC1` [Example 3, 1^5-((4-methylpiperazin-1-yl)methyl)-1^1H-2,6-diaza-1(2,1)-benzo[d]imidazola-4(1,3)-benzenacycloundecaphane-3,5-dione] displayed a ring closure, isolated yield in series [2] (from CN1CCN(Cc2ccc3c(c2)nc(NC(=O)c2cccc(C(=O)O)c2)n3CCCCCN)CC1, HATU/DIEA, DMF, 2.4 mM, 1.17 h) of 13%. Further, the half-maximal inhibitory concentration (IC50) in series [3] is 1 nM; in series [5] (Homo sapiens, 0.5 h), 4.5 nM. The solubility in series [4] amounted to 31.5 µM (≈ 14.5 µg/mL).

For `COC(=O)c1cccc2nc3n(c12)C(C)CCCCNC(=O)c1cccc(c1)C(=O)N3` (centres unmarked) [Example 7, methyl 11-methyl-3,5-dioxo-1^1H-2,6-diaza-1(2,1)-benzo[d]imidazola-4(1,3)-benzenacycloundecaphane-1^7-carboxylate], the “solubility” value in series [6] was 0.9 µM (≈ 0.378 µg/mL). Besides, the ring closure, isolated yield in series [2] (from COC(=O)c1cccc2nc(NC(=O)c3cccc(C(=O)O)c3)n(C(C)CCCCN)c12, HATU/TEA, dioxane, 2.2 mM, 25.0 °C, 16.0 h, 2 steps) was found to be 21%. Moreover, the IC50 in series [3] was determined as 4 nM.

As to `CC1CCCCNC(=O)c2cccc(c2)C(=O)Nc2nc3cccc(C(=O)N4CCN(C(=O)OC(C)(C)C)CC4)c3n21` (centres unmarked) [Example 9, tert-butyl 4-(11-methyl-3,5-dioxo-1^1H-2,6-diaza-1(2,1)-benzo[d]imidazola-4(1,3)-benzenacycloundecaphane-1^7-carbonyl)piperazine-1-carboxylate], in series [6], the “solubility” value worked out at 30.9 µM (≈ 17.8 µg/mL). Besides, the half-inhibitory concentration (IC50) in series [3] is 1 nM; in series [5] it was 600 nM. In addition, the “potency and efficacy compared with Comparative Example 1 (takinib)” value in series [5] (THP-1 cells, LPS, phospho-p38) is listed as “greater”.

Turning to `O=C1NCCCCCn2c(nc3cccc(C(=O)O)c32)NC(=O)c2cccc1c2` [Example 18, (E)-3,5-dioxo-1^2,1^3-dihydro-1^1H-2,6-diaza-1(2,1)-benzo[d]imidazola-4(1,3)-benzenacycloundecaphane-1^7-carboxylic acid], the “solubility” value in series [6] stood at 95.0 µM (≈ 37.3 µg/mL). The half-maximal inhibitory concentration (IC50) in series [3] is 9 nM.

As usually defined, the IC50 is the concentration that gives 50% inhibition. In general, solubility refers to the dissolved amount per volume that the medium holds. High values mean a readily soluble substance, low ones a poorly soluble substance.
